From patent US9102629B2, “Polymorphic forms of 4-phenylamine quinazoline derivative, the preparation method and uses thereof” (priority 2008, dated 2015)

Tests used:
[1] = Thermal stability test (storage at 60° C.); type: physicochemical; settings: p-Toluenesulfonate; for thermal stability: 60° C., one month, in words; for Purity (%): stored at 60° C.
From the text: The purity of Form A was detected at 0, 10 and 30 days, which was based to deduce the thermal stability of Form A. The thermal stability of Form B and Form C were also deduced by this method.

[2] = Light stability test (illumination 4500 lx±500 lx); type: physicochemical; settings: p-Toluenesulfonate; for light stability: 4500 lx±500 lx, one month, in words; for Purity (%): illumination 4500 lx±500 lx
From the text: The purity of Form A was detected at 0, 10 and 30 days, which was based to deduce to the light stability of Form A. The light stability of Form B and Form C were also deduced by this method.

[3] = Hygroscopicity test (high moisture environment of 92.5%); type: physicochemical; settings: p-Toluenesulfonate; for stability under the environment of high moisture: 92.5% moisture, one month, in words; for Purity (%): high moisture environment of 92.5%
From the text: The purity of Form A was detected at 0, 10 and 30 days, which was based to deduce the hygroscopicity of Form A. The hygroscopicities of Form B and Form C were also deduced by this method.

[4] = tested on: human epidermatoid squamous cancer A431; test: Tumor-inhibitory effect on A431 transplanted to nude mouse; type: in vivo, BALB/cA nude mouse; settings: for Weight of animals (g) (without tumor) / Tumor inhibition rate % / Weight of tumors (g) x ± SD: 13 days; for Tumor inhibition rate %: by tumor weight; for Weight of tumors (g) x ± SD: killed 23 days after inoculation
Protocol: A well-developed solid tumor A431 was selected and cut into several uniform bits of a size of 2-3 mm under sterile conditions, with one bit being inoculated subcutaneously to the right armpit of each of the BALB/cA nude mice using trocar. 7 days after inoculation, the mice were grouped randomly and were intragastrically administrated through mouth for 13 days continuously. The long axis (a) and the short axis (b) of the tumors were measured with a vernier caliper every 4 days. According to the formula V=ab^2/2, the tumor volume (mm^3) could be calculated. The tested animals were neck-off killed 23 days after the inoculation, and anatomized to obtain the tumors. The tumors were weighed, and the tumor inhibition rate was calculated.

[5] = tested on: human ovarian cancer SKOV-3; test: Tumor-inhibitory effect on SKOV-3 transplanted to nude mouse; type: in vivo, BALB/cA nude mouse; settings: for relative tumor proliferation rate T/C: SKOV-3, 3 weeks, p-Toluenesulfonate; for relative tumor proliferation rate T/C / tumor inhibitory effects: 100 mg/kg ig twice a day; for tumor inhibitory effects: summary in words for SKOV-3, Calu-3 and A549 models
Protocol: A tumor SKOV-3 in vigorous growth period was selected and cut into several uniform bits of a size of about 1.5 mm^3, which was inoculated subcutaneously to the right armpit of the BALB/cA nude mice using trocar under sterile conditions. The diameters of the transplanted tumors of nude mice were measured with a vernier caliper. The animals were grouped randomly when the tumors grew to a size of 80-100 mm^3. The tested animal group were intragastrically administrated through mouth as mentioned above once a day for 3 weeks continuously. The positive control drug MMC (Mitomycin) was intravenously administered once on the first day with a dose of 5 mg/kg. The negative control group were administered with 0.5% CMC-Na (Carboxymethyl Cellulose Sodium) with a dose of 0.2 mL/per mouse. The long axis (a) and the short axis (b) of the tumors were measured twice every week and the nude mice were weighed at the same time. According to the formula V=ab^2/2, the tumor volume (mm^3) could be calculated, based on which the relative tumor volume (RTV) was calculated (Calculation Formula: RTV=Vt/V0, wherein V0 represents the tumor volume measured at the grouping time of administration, and Vt represents the tumor volume measured each time). The relative tumor proliferation rate T/C (%) was chosen as the index to evaluate the anti-tumor activity, which can be calculated according to the following formula: T/C (%)=(TRTV/CRTV)×100
TRTV: RTV of the treated group; CRTV: RTV of the negative control group
V0 represents the tumor volume before the administration, and V21 represents the tumor volume after 3 weeks of continuous administration.
(§1) According to the experimental method mentioned above, the tumor-bearing nude mice, into which the human ovarian cancer SKOV-3, the human lung cancer Calu-3, and the human lung cancer A549 were transplanted respectively, were intragastrically administrated with Form B (100 mg/kg) of the present invention through mouth twice a day for 3 weeks continuously.
as §1, with “SKQV-3,” for “SKOV-3,”, “C” for “B”

[6] = Toxicity test of long-term administration; type: in vivo; settings: SD rats, ig, 20, 50, 100, 500 or 800 mg/(kg·day), four weeks
Protocol: 80 healthy SD rats, male and weighed 200˜250 g, were grouped into 16 groups randomly, and were each intragastrically administered with Form A, B or C of the p-toluenesulfonate of the compound of formula (I) or a blank solvent (Five test groups with the dose of 20, 50, 100, 500 or 800 mg/(kg·day) and a solvent control group were set).

[7] = tested on: human lung cancer Calu-3; test: Tumor-inhibitory effect on Calu-3 transplanted to nude mouse; type: in vivo, nude mice; settings: 100 mg/kg ig twice a day, 3 weeks, p-Toluenesulfonate
Protocol: (§2) The diameters of the transplanted tumors of nude mice were measured with a vernier caliper. The animals were grouped randomly when the tumors grew to a size of 80-100 mm^3. […] The positive control drug MMC (Mitomycin) was intravenously administered once on the first day with a dose of 5 mg/kg. The negative control group were administered with 0.5% CMC-Na (Carboxymethyl Cellulose Sodium) with a dose of 0.2 mL/per mouse. The long axis (a) and the short axis (b) of the tumors were measured twice every week and the nude mice were weighed at the same time. […] RTV=Vt/V0, wherein V0 represents the tumor volume measured at the grouping time of administration, and Vt represents the tumor volume measured each time). The relative tumor proliferation rate T/C (%) was chosen as the index to evaluate the anti-tumor activity, which can be calculated according to the following formula: T/C (%)=(TRTV/CRTV)×100 TRTV: RTV of the treated group; CRTV: RTV of the negative control group The standard for evaluating the effectiveness: […]

[8] = tested on: human lung cancer A549; test: Tumor-inhibitory effect on A549 transplanted to nude mouse; type: in vivo, nude mice; settings: 100 mg/kg ig twice a day, 3 weeks, p-Toluenesulfonate
Protocol: as §2

[9] = Drug absorption in SD rat, intragastric administration; type: in vivo, SD rat (Sprague Dawley rat); settings: ig, 30 mg/kg, plasma, p-Toluenesulfonate
Protocol: Intragastric administration (ig): 16 healthy SD rats, male, weighed 200˜250 g, and grouped into 4 groups randomly, were each administered intragastrically with a drug:the compound (21.68 mg/kg) prepared according to Example 1, Form A, B or C of p-toluenesulfonate of the compound (30 mg/kg). The blood samples were collected at 0.5, 1.0, 1.5, 2.0, 3.0, 5.0, 7.0, 9.0, 12 and 24 hours after administration, which were then isolated to prepare the plasma. The concentration of the drug in the plasma was determined by means of liquid chromatography/mass spectrometry, and the concentration-time curve was obtained.

[10] = tested on: human epidermoid squamous cancer cell A431; settings: from WO 2007/082434; in words; cited from earlier work
[11] = tested on: human breast cancer cell BT-474; settings: from WO 2007/082434; in words; cited from earlier work
[12] = tested on: human epidermoid squamous cancer cell A431; settings: from WO 2007/082434; in words; cited from earlier work; remark: listed apart in the source
[13] = target: Erb-B2 kinase (Homo sapiens, UniProt P04626); settings: in vitro; from WO 2007/082434; in words; cited from earlier work
Erb-B2 kinase, sequence (P04626 23-1255): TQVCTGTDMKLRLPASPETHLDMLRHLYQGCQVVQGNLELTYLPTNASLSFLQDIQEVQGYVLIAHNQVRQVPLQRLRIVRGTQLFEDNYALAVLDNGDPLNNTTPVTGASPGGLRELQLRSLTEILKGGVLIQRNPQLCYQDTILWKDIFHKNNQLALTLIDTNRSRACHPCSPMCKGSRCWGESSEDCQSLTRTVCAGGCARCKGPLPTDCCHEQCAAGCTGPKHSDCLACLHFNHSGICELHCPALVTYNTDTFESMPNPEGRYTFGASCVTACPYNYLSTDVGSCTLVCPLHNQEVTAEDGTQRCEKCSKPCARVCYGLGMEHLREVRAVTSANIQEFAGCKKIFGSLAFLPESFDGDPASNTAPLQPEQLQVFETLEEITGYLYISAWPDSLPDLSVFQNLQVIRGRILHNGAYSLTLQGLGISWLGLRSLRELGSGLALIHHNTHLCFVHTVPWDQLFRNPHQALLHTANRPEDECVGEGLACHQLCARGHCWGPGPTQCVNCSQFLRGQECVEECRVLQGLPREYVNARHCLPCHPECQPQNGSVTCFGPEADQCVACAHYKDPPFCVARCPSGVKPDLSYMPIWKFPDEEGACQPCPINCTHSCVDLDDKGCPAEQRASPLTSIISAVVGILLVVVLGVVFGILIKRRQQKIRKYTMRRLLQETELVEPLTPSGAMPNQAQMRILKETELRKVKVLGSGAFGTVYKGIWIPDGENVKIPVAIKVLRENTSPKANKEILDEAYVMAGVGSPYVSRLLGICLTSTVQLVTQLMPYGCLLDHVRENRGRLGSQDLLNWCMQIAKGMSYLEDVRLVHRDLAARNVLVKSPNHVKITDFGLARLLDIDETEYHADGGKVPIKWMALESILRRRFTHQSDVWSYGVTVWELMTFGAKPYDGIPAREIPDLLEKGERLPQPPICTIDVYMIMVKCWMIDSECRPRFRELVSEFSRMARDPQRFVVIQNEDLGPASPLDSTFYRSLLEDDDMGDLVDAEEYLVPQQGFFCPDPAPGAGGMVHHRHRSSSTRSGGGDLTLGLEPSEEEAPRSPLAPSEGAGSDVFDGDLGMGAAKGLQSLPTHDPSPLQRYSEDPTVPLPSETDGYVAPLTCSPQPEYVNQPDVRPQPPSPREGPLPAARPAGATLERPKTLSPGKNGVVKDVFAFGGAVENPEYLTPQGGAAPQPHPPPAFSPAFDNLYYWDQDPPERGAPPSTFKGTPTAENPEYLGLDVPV

thermal stability [1]	Purity (%) ([1]; detect time day 0)	Purity (%) ([1]; detect time day 10)	Purity (%) ([1]; detect time day 30)	light stability [2]	Purity (%) ([2]; detect time 0)	Purity (%) ([2]; detect time 10)	Purity (%) ([2]; detect time 30)	stability under the environment of high moisture [3]	Purity (%) ([3]; detect time 0)	Purity (%) ([3]; detect time 10)	Purity (%) ([3]; detect time 30)	Structure (SMILES)	food intake [6]	physical signs, appearance, behaviors, activities or shape of dejecta [6]	weight and weight increase of the rats [6]	relative tumor proliferation rate T/C [5] [%]	tumor inhibitory effects [5]	relative tumor proliferation rate T/C [7] [%]	relative tumor proliferation rate T/C [8] [%]	also measured
excellent	98.64	98.64	98.64	good	98.64	98.16	97.24	very stable	98.64	98.62	98.62	C=CC(=O)Nc1ccc2ncnc(Nc3ccc(OCc4cccc(F)c4)c(Cl)c3)c2c1.Cc1ccc(S(=O)(=O)O)cc1 [Form A, N-{4-[3-chloro-4-(3-fluoro-benzyloxy)phenylamino]-quinazolin-6-yl}-acrylamide p-Toluenesulfonate]	normal	no abnormality	basically similar to the solvent control group					Weight of animals (g) (without tumor) ([4]; 25 mg/kg ig, A431 nude mouse): 21.58 ± 2.18 g; Tumor inhibition rate % ([4]; 25 mg/kg ig): 29.99%; Weight of tumors (g) x ± SD ([4]; 25 mg/kg ig): 0.79 ± 0.20 g; Weight of animals (g) (without tumor) ([4]; 50 mg/kg ig, A431 nude mouse): 22.87 ± 3.96 g; Tumor inhibition rate % ([4]; 50 mg/kg ig): 38.67%; Weight of tumors (g) x ± SD ([4]; 50 mg/kg ig): 0.69 ± 0.17 g; Weight of animals (g) (without tumor) ([4]; 100 mg/kg ig, A431 nude mouse): 22.13 ± 1.83 g; Tumor inhibition rate % ([4]; 100 mg/kg ig): 43.63%; Weight of tumors (g) x ± SD ([4]; 100 mg/kg ig): 0.64 ± 0.23 g; inhibitory effect on the tumor ([4]; A431 nude mouse, ig, in words): significant inhibitory effect; tumor inhibitory effect ([5]; SKOV-3 nude mouse, ig once a day, in words): significant tumor inhibitory effect
good	99.03	97.08	97.55	good	99.03	98.54	98.42	comparatively stable	99.03	98.27	98.08	C=CC(=O)Nc1ccc2ncnc(Nc3ccc(OCc4cccc(F)c4)c(Cl)c3)c2c1.Cc1ccc(S(=O)(=O)O)cc1 [Form C, N-{4-[3-chloro-4-(3-fluoro-benzyloxy)phenylamino]-quinazolin-6-yl}-acrylamide p-Toluenesulfonate]	normal	no abnormality	basically similar to the solvent control group	23.2	significant tumor inhibitory effects	39.4	58.7	
excellent	99.26	99.21	99.11	excellent	99.26	99.26	99.24	very stable	99.26	99.25	99.24	C=CC(=O)Nc1ccc2ncnc(Nc3ccc(OCc4cccc(F)c4)c(Cl)c3)c2c1.Cc1ccc(S(=O)(=O)O)cc1 [Form B, N-{4-[3-chloro-4-(3-fluoro-benzyloxy)phenylamino]-quinazolin-6-yl}-acrylamide p-Toluenesulfonate]	normal	no abnormality	basically similar to the solvent control group	28.5	significant tumor inhibitory effects	35.1	56.3	AUC0-t [9]: 978 ng·h/mL
												C=CC(=O)Nc1ccc2ncnc(Nc3ccc(OCc4cccc(F)c4)c(Cl)c3)c2c1 [Compound of formula (I), N-{4-[3-chloro-4-(3-fluoro-benzyloxy)phenylamino]-quinazolin-6-yl}-acrylamide]								inhibiting the growth of A431 cells [10]: relatively good effect; inhibiting the growth of BT-474 cells [11]: relatively good effect; tumor-inhibiting effect on A431 implanted into a nude mouse [12]: significant tumor-inhibiting effect; inhibitory activity against Erb-B2 kinase [13]: excellent inhibitory activity
